# Test results published in patent US7345091B2, “Carotenoid ether analogs or derivatives for the inhibition and amelioration of disease” (Cardax Pharmaceuticals, Inc., priority 2002, dated 2008).
# Key:
# [1] = Text: FIG. 27 and FIG. 28 depict the results of spectral analysis after flash photolysis of the formation of triplet and carotenoid cation radical states for non-esterified, free astaxanthin 2E and the diacid disuccinate astaxanthin derivative XV were obtained. Formation of the carotenoid cation radical is a measure of the potential biophysical behavior of the novel derivative as an antioxidant. If a derivative retains the antioxidant behavior of non-esterified, free astaxanthin, then all previously documented (i.e. literature precedent) therapeutic applications for astaxanthin can be reasonably assumed for the novel derivative, including at least singlet oxygen quenching, lipid peroxidation chain-breaking, and/or direct radical scavenging.
# In this experiment, nitronaftalin (NN) was used as the photosensitizer. After irradiation, the excited sensitizer (NN*) forms a sensitizer triplet (^3NN). When ^3NN encounters a carotenoid, energy and electron transfer reactions with ^3NN take place. The resulting relatively stable ^3car and carotenoid cation radicals (car*^+) are detected by characteristic absorption bands. Non-polar solvents (e.g. hexane) favor the formation of ^3car, and more polar solvents (alcohols, water) favor the formation of the car.^+. The anion radical of the sensitizer (NN.^−) is not typically seen because of a low absorption coefficient.
# The ^3car decays rather quickly. After 15 μs, half of the ^3car has disappeared, and after 50 μs, no ^3car is left.
# The spectrum of asta 2E is nearly identical to that of astaCOOH XV. After 50 μs, the ^3car has disappeared. During this time frame, the car.^+ is stable. Negative and positive peaks in the absorption spectra for astaCOOH XV and asta 2E are superimposable.
# [2] = human, in vivo, po, 1.1 mg/kg; cited from earlier work
# superoxide anion = assay: Superoxide anion scavenging by EPR (DEPMPO spin trap) in phorbol ester-stimulated isolated neutrophils; type: cell-based, human; conditions: Homo sapiens, Neutrophil, Solvent DMSO, 0.1 mM; read-out: Mean (% inhibition) of superoxide anion signal
# Experimental: In an experiment, neutrophils were isolated on a Percoll gradient from whole blood from a human volunteer. The isolated neutrophils were then re-suspended in phosphate-buffered saline, and maximally stimulated with phorbol ester to induce the respiratory burst and production of superoxide anion. To the solution of activated human neutrophils, the disodium salt disuccinate astaxanthin derivative XVI was added at various concentrations, and the superoxide signal [as measured with electron paramagnetic resonance (EPR) spectroscopy] was subsequently measured. […] The disodium salt disuccinate astaxanthin derivative XVI tested at 100 μM scavenged 28% of the total signal. At 3 mM, almost no superoxide signal remained. […] In addition to reducing the superoxide anion signal important in ischemia-reperfusion injury, it is also likely that myocardial salvage can be achieved with the described carotenoid derivative, as superoxide anion plays a major role in tissue injury and death during prolonged myocardial ischemia. In a third experiment, neutrophils were again isolated on a Percoll gradient from whole blood from a second human volunteer. The isolated neutrophils were then re-suspended in phosphate-buffered saline, and maximally stimulated with phorbol ester to induce the respiratory burst and production of superoxide anion. […] Astaxanthin 2E was dissolved in HPLC grade dimethylsulfoxide (DMSO; Sigma-Aldrich, St. Louis, Mo.). The disodium disuccinate derivatives XVI of astaxanthin 2E were tested separately in […] formulations: statistical mixture of stereoisomers (as for astaxanthin, above, a 1:2:1 mixture of all-E; labeled as “mixture” in all tables and figures); 3S,3'S, and 3R,3'R (optical isomers or enantiomers); and meso (mixture of identical 3S,3'R and 3'S,3R; diastereomers of the enantiomeric pair). […] The disuccinate derivatives were first tested at the appropriate final concentrations in pure aqueous solution (deionized water) from stock solutions of 10 mM. Each of the four disuccinate derivatives were then tested from stock solutions prepared in a 1:2 mixture of ethanol (final concentration of EtOH in stock solution 331⁄3%; final concentration in isolated neutrophil assay 0.3%; HPLC grade ethanol, Sigma-Aldrich, St. Louis, Mo.) at 10 mM. […] Metaphore® Pharmaceuticals, Inc., St. Louis, Mo.) were also performed. Human polymorphonuclear leukocytes (PMNs) were isolated from freshly sampled venous blood of a single volunteer by Percoll density gradient centrifugation, which yielded PMNs with a purity of >95%. Each 10 mL of whole blood was mixed with 0.8 mL of 0.1 M EDTA and 25 mL of saline. The diluted blood was layered over 9 mL of Percoll at a specific density of 1.080 g/mL. After centrifugation at 400×g for 20 min at 20° C., the plasma, mononuclear cell, and Percoll layers were removed. Erythrocytes were lysed by addition of 18 mL of ice-cold water for 30 s, followed by 2 mL of 10× PIPES buffer (25 mM PIPES, 110 mM NaCl, and 5 mM KCl, titrated to pH 7.4 with NaOH). Cells were pelleted at 4° C., the supernatant was decanted, and the procedure was repeated. After the second hypotonic lysis, cells were washed twice with PAG buffer (PIPES buffer containing 0.003% human serum albumin and 0.1% glucose). Afterward, PMNs were counted by light microscopy on a hemocytometer. The final pellet was then suspended in PAG-CM buffer (PAG buffer with 1 mM CaCl2 and 1 mM MgCl2). All EPR measurements were performed using a Bruker ER 300 EPR spectrometer operating at X-band with a TM110 cavity. The microwave frequency was measured with a Model 575 microwave counter (EIP Microwave, Inc., San Jose, Calif.). To measure O^ -2 generation from phorbol-ester (PMA)-stimulated PMNs, EPR spin-trapping studies were performed using DEPMPO (Oxis, Portland, Oreg.) at 10 mM. 1×10^6 PMNs were stimulated with PMA (1 ng/mL) and loaded into capillary tubes for EPR measurements. […]
# [3] = read-out: antioxidant ED50 (protective level); cited from earlier work
# [4] = test system: C3H10T1/2 cell culture model; assay: Inhibition of MCA-induced neoplastic transformation; type: cell-based, mouse; conditions: for percent reduction of MCA-induced neoplastic transformation: 3×10^-6 M in THF
# Experimental: Non-esterified, free astaxanthin 2E is generated in the mammalian gut after oral administration of esterified astaxanthin. Only free astaxanthin is found in mammalian plasma and solid organs. […] Inherent esterase activity of serum albumin, and the action of promiscuous esterases in serum and solid organs rapidly generates non-esterified, free astaxanthin after parenteral administration of the disodium disuccinate astaxanthin derivative (XVI). […] An experiment was performed to assess the ability of non-esterified, free astaxanthin (the in vivo final cleavage product of the disodium salt disuccinate astaxanthin derivative (XVI), tested as the all-trans mixture of stereoisomers 3S,3′S, meso, and 3R,3′R in a 1:2:1 ratio) to inhibit neoplastic transformation in the C3H10T1/2 cell culture model developed in the lab of the late Charles Heidelberger (Reznikoff, 1973).
# This experiment was conducted according to protocols established previously (Bertram, 1991 and Pung, 1988). In brief, the 10T1/2 cells, derived from mouse embryonic fibroblasts, were seeded at a density of 10^3 cells/60 mm dish in Eagle's Basal Media (BME) (Atlanta Biologicals, Atlanta, Ga.), supplemented with 4% fetal calf serum (Atlanta Biologicals, Atlanta, Ga.) and 25 μg/mL gentamicin sulfate (Sigma, St. Louis, Mo.). Cells were treated 24 hours later with 5.0 μg/ml MCA (Sigma, St. Louis, Mo.) in acetone or with 0.5% acetone (final concentration) as a control. Media was changed 24 hours after MCA treatment. Cells were treated with astaxanthin in THF or with retinol acetate in acetone 7 days later, and re-treated every 7 days for 4 weeks. Other dishes were treated with the appropriate solvent controls. After 5 weeks from the start of the experiment, cells were fixed with methanol and stained with 10% Giemsa stain (Sigma, St. Louis, Mo.) and scored for type II and type III foci as per Reznikoff (1973).
# [5] = test system: connexin 43 protein expression; assay: Induction of connexin 43 protein expression (Western blot, 96 hours); type: cell-based, mouse; conditions: 10^-8 M, 96-hour time point
# Experimental: In brief, mouse embryonic fibroblast CH3/10T^1/2 cells were treated with the following formulations in a 4 mL cell culture system with media containing 2% calf serum: • 1. TTNPB [p-(E)-2-(5,6,7,8-tetrahydro-5,5,8,8-tetramethyl-2-napthyl) propenyl benzoic acid] 10^−8 M in acetone [positive control for connexin 43 upregulation (4 μL in 4 mL] • 2. Disodium salt disuccinate astaxanthin derivative XVI/H2O at 10^−5 M (40 μl in 4 mL) • 3. Disodium salt disuccinate astaxanthin derivative XVI/H2O at 10^−6 M (4 μl in 4 mL) • 4. Disodium salt disuccinate astaxanthin derivative XVI/H2O at 10^−7 M (1:10 dilution and 4 μl in 4 mL) • 5. Disodium salt disuccinate astaxanthin derivative XVI H2O/ethanol [EtOH] formulation at 10^-5 M (40 μl in 4 mL) • 6. Disodium salt disuccinate astaxanthin derivative XVI H2O/EtOH formulation at 10^−6 M (4 μl in 4 mL) • 7. Sterile H2O control (40 μl in 4 mL) • 8. Sterile H2O/EtOH control (20 μL EtOH, 20 μL H2O in 4 mL) • 9. Media control (4 mL)
# Cells were harvested after 96 hours incubation with test compounds and control solutions. All media solutions were identical in color, however after treatment with the disodium salt disuccinate astaxanthin derivative XVI at both 10^−5 dilutions, the color subjectively changed to an orange-red color. Cells treated with TTNPB appeared striated with light microscopy, evidence of differentiation to myocytes, an expected result in this cell culture system. After harvest and pelleting of cells, tubes containing both 10^−5 disodium salt disuccinate astaxanthin derivative XVI solutions were bright red; both 10^−6 dilution tubes were a pink color. As documented previously for other colored carotenoids, this was subjective evidence for cellular uptake of the test compounds.
# Cells were then lysed, and 50 μg of each protein was electrophoresed on a 10% polyacrylamide gel. The gel was then transferred to a nitrocellulose filter. Total protein was assayed with Coomassie blue staining (FIG. 29; lanes 6, 7, and 9 were smeared secondary to gel transfer, and were not included in the quantitative comparison [FIG. 31)]. […]
# C3H/10T1/2 cells = assay: Assembly of Cx43 into plaques (immunofluorescent staining); type: cell-based, mouse; conditions: 1×10^-8 M in tetrahydrofuran, 4 days
# Experimental: In this experiment expression and assembly of Cx43 into plaques was assessed by immunofluorescent staining. Procedures were essentially as described in Zhang (1992). Briefly, confluent cultures of C3H/10T1/2 cells were grown on Permanox plastic 4-chamber slides (Nalge Nunc International, Naperville, Ill.) and treated for 4 days with: (1) the disodium salt disuccinate astaxanthin derivative XVI (statistical mixture of stereoisomers) dissolved in a 1:2 EtOH/H2O formulation; (2) the retinoid TTNPB at 1×10^−8 M in tetrahydrofuran as a positive control; or (3) 1:2 EtOH/H2O as a solvent control. Cells were fixed with −20° C. methanol overnight, washed in buffer, blocked in 1% bovine serum albumin (Sigma, St, Louis, Mo.) in PBS, and incubated with the rabbit polyclonal anti-Cx43 antibody (Zymed, San Francisco, Calif.) as in (2) above and detected with Alexa568 conjugated anti-rabbit secondary (Molecular Probes, Eugene, Oreg.). Slides were illuminated with […] light and images were acquired at a wavelength of 600 nm using the Zeiss Axioscope light microscope and a Roper Scientific cooled CCD camera. […] In cultures treated with solvent as control, such immunoreactive plaques were infrequent and were smaller than those detected in cells treated with the statistical mixture of stereoisomers of the disodium salt disuccinate astaxanthin derivative XVI or with TTNPB as positive control. […]
stability of the carotenoid cation radical (car.+) [1],Compound,"time after which no 3car (carotenoid triplet) is left ([1]; acetonitrile, sensitizer NN) [μs]","Cmax, plasma levels [2] [ng/mL]",inhibition at 100 µM (superoxide anion) [%],EC50 [3] [µM],percent reduction of MCA-induced neoplastic transformation ([4]; 4-week treatment),"percent reduction of MCA-induced neoplastic transformation ([4]; 4-week treatment, listed as Non-esterified, free astaxanthin) [%]","numbers of MCA-induced transformed foci ([4]; 3×10^-6 M, 1×10^-6 M and 3×10^-7 M, 4-week treatment, vs MCA + THF control)","potency as inhibitor of transformation compared with previously tested carotenoids ([4]; comparison with data of Bertram, 1991 (1×10^-5 M))",induction of connexin 43 expression [5],assembly of immunoreactive Cx43 into plaques (C3H/10T1/2 cells)
stable,"CC1=C(/C=C/C(C)=C/C=C/C(C)=C/C=C/C=C(C)/C=C/C=C(C)/C=C/C2=C(C)C(=O)C(O)CC2(C)C)C(C)(C)CC(O)C1=O (centres unmarked) [Astaxanthin 2E, Astaxanthin]",50,1300,28,0.2,complete suppression of the transformed phenotype,100,concentration-dependent decrease,far more potent inhibitor of transformation than either β-carotene or canthaxanthin,–,–
–,"C/C(=C\c1ccc(C(=O)O)cc1)c1ccc2c(c1)C(C)(C)CCC2(C)C [TTNPB, p-(E)-2-(5,6,7,8-tetrahydro-5,5,8,8-tetramethyl-2-napthyl) propenyl benzoic acid, reference compound]",–,–,–,–,–,–,–,–,effective at inducing connexin 43 expression,exhibited assembly of immunoreactive Cx43 into plaques
